Patent US12522827B2 (priority 2021, dated 2026)
l = locked nucleic acid (LNA); d = 2'-deoxy (DNA)

Key:
PR8 (H1N1) virus = format: cell-based, Influenza A/PR/8/34 (PR8) H1N1 virus
[1] = system: A/Hong Kong/8/68 (HK68) (H3N2) virus; format: cell-based, Influenza A/Hong Kong/8/68 (HK68) H3N2 virus
wild-type PR8 virus = system: wild-type PR8 virus; set-up: species or system Balb/C female mice; conditions: mouse, in vivo

In the case of “TagCAtActtA (TAGCATACTTA; antisense; sugars from the 5' end lddlldldddl, backbone and methylation of C not given here) [LNA3]”, the “effect on viral titer / viral production” value (PR8 (H1N1) virus) is reported as “failed to inhibit viral production” and the “effect on viral titer / viral production” value [1] is reported as “failed to inhibit viral production”.

In the case of TACTtactgacaGCC [LNA9], the “clinical signs of disease” value (wild-type PR8 virus) is reported as “little-to-no clinical signs of disease”, the “protection from fatal influenza disease (survival)” value (wild-type PR8 virus) is reported as “completely protected” and the recovery of weight (wild-type PR8 virus) is reported as “fully recovered to pre-infection weight”. The weight loss (wild-type PR8 virus) was “minimal weight loss”, the “antiviral response, cells pre-treated” value (PR8 (H1N1) virus) was “greater than 4 logs” and the “drop in viral production (antiviral activity)” value (“drop in viral production” below) (PR8 (H1N1) virus) was about 5 logs. For the same substance, the “suppression of viral titer, post-infection treatment” value (PR8 (H1N1) virus) was “greater than 3 logs”, the “viral inhibition at the lowest dilution” value (PR8 (H1N1) virus) was “greater than 2 logs” and the “drop in viral production” value [1] was about 4 logs.

For CCAAAAGA [LNA4], the “effect on viral titer / viral production” value (PR8 (H1N1) virus) was “little to no effect” and the “effect on viral titer / viral production” value [1] was “little to no effect”.

In the case of CATACTTA [LNA5], the “effect on viral titer / viral production” value (PR8 (H1N1) virus) is reported as “failed to inhibit viral production” and the “effect on viral titer / viral production” value [1] is reported as “failed to inhibit viral production”.

For “AccAaaAGaaT (ACCAAAAGAAT; antisense; sugars from the 5' end lddlddllddl, backbone and methylation of C not given here) [LNA1]”, the “effect on viral titer / viral production” value (PR8 (H1N1) virus) was “little to no effect” and the “effect on viral titer / viral production” value [1] was “little to no effect”.

“CagaCaCGaCCaaAA (CAGACACGACCAAAA; antisense; sugars from the 5' end ldddldlldllddll, backbone and methylation of C not given here) [LNA6]” was tested, and the titer deficits (PR8 (H1N1) virus) was “greater than 2 log10”.

In the case of “AGAcagcgaccaaAAG (AGACAGCGACCAAAAG; antisense; sugars from the 5' end l3 d10 l3, backbone and methylation of C not given here) [LNA8a]”, the “drop in viral production” value (PR8 (H1N1) virus) is reported as “up to 3 logs” and the “drop in viral production” value [1] is reported as “up to 3 logs”.
